# Test results taken from patent US20020197700A1, “Receptor of the EDb-fibronectin domains” (Schering AG, priority 2000, published 2002).
# “Also recorded” adds a separate entry of the source.
# What was measured:
# endothelial cells [1] = test: adhesion test to ED-B-coated plates after pre-incubation of the cells with synthetic ED-B peptides; format: cell-based; conditions: cells pre-incubated with 250 μM peptide; A595
# Procedure: Bowls of a 96-bowl plate (Nunc) are covered with protein for one hour at 37° C. With small proteins (<20 kDa) or peptides, it is recommended to allow the latter to dry on the plate (overnight without a cover under the sterile bank). The bowls are then saturated with 1% BSA for 1 hour at 37° C. Cells are dissolved in 1×trypsin, washed with 2% serum to inactivate the trypsin, and resuspended in medium. If antibodies or peptides are to be tested, the cells are pre-incubated in suspension with the latter for 30 minutes at 37° C. 10^4 cells per bowl (96-bowl plate) are incubated in a volume of 50-100 μl for 1 hour at 37° C. The supernatant is carefully poured off, the plate can be left inverted to drain on a paper towel for one minute and attached cells are stained with crystal violet/glutaric aldehyde for 15 minutes and attached. The bowls are washed three times with PBS, and the cells are then lysed by adding 2% SDS (15 minutes in the shaker). The absorption at 595 nm is measured. After washing three times with water, the cells, if desired, can be stained again.
# The adherence was determined by the determination of the extinction at 595 nm (A595). The peptide designations that are applied in the figure are explained in FIG. 6. In this case, peptide sequence No. 043 corresponds to the sequence that is represented in SEQ ID NO: 1, peptide sequence No. 553 corresponds to SEQ ID NO: 2, peptide sequence No. 038 corresponds to SEQ ID NO: 3. A higher A595 value corresponds to a non-inhibited adherence, while a lower A595 value corresponds to an inhibition of the adherence by the corresponding peptide.
# The method described for FIG. 4 was followed.
# stromal cells (SC) = test: proliferation assay (MTS) of stromal cells; format: cell-based, human; conditions: SC/gelatin; bFGF+ED-B; 3 days
# Procedure: (§1) 1000 cells per bowl were incubated in 96-bowl plates. Soluble ED-B (10 μg/l) was added to the medium during the proliferation assay. After three days, the cell count was determined with the MTS assay. The proliferation of cells was induced by a basic […] growth factor (bFGF). […] In the case of human stromal cells on gelatin (SC/gelatin), even in the absence of bFGF proliferation occurred that considerably exceeded that of human endothelial cells.
# (§2) For the proliferation assay, the following experimental method was followed:
# (§3) Material: 96-bowl plate (flat-bottomed), Nunc
# (§4) Medium: MCDB 131, Pen/Strep, amphotericin (0.25 μg/ml), heparin (20 μg/ml), heat-inactivated FCS (5%)
# Cells, 500-1000 per bowl (96-bowl plate) in 100 μl, are cultivated for 3 days in a medium with bFGF (1-3 ng/ml) or VEGF (30-50 ng/ml). The exact amount should be determined for each batch by titration: the minimum concentration that reaches the maximum proliferation stimulation is optimal. A synchronization of the cells before the experiment is not necessary, but can be done. After 3 days, the cell count is determined with the MTS kit (Promega) according to manufacturer's information. It is recommended to measure the absorption at several points to obtain a maximum absorption in the linear range (0.5; 1; 2; 4 hours). […]
# endothelial cells [2] = test: adhesion test of endothelial cells to coated microtiter-bowl plates; format: cell-based; conditions: plates coated with 0-40 μg/ml ED-B; 1 hour; crystal violet, A595
# Procedure: As a negative control, bowls were used that were coated with 1 mg/ml of BSA (bovine serum albumin); the adhesion to BSA (<10%) was subtracted.
# The adherence was quantified by staining with crystal violet, followed by a lysis with SDS. The quantification was carried out by measuring the extinction at 595 nm. A line drawn horizontally in the figure at A595 nm≈1.06 indicates the 100% adhesion to plasma-fibronectin.
# For the adherence/adhesion test, the following experimental method was used:
# Medium: MCDB 131, Pen/Strep, amphotericin (0.25 μg/ml), heparin (20 μg/ml), 0.1% BSA (Sigma, ethanol-precipitated)
# 0.1% crystal violet, 2% glutaric aldehyde in PBS, sterilized by filtration 2% SDS
# Bowls of a 96-bowl plate (Nunc) are covered with protein for one hour at 37° C. With small proteins (<20 kDa) or peptides, it is recommended to allow the latter to dry on the plate (overnight without a cover under the sterile bank). The bowls are then saturated with 1% BSA for 1 hour at 37° C. Cells are dissolved in 1×trypsin, washed with 2% serum to inactivate the trypsin, and resuspended in medium. If antibodies or peptides are to be tested, the cells are pre-incubated in suspension with the latter for 30 minutes at 37° C. 10^4 cells per bowl (96-bowl plate) are incubated in a volume of 50-100 μl for 1 hour at 37° C. […] The absorption at 595 nm is measured. […]
# endothelial cells (EC) = test: proliferation assay (MTS) of endothelial cells; format: cell-based; conditions: soluble ED-B 10 μg/l, 3 days; for action on human endothelial cell proliferation: bFGF-induced
# Procedure: as §1, §2, §3, §4
# Cells, 500-1000 per bowl (96-bowl plate) in 100 μl, are cultivated for 3 days in a medium with bFGF (1-3 ng/ml) or VEGF (30-50 ng/ml). The exact amount should be determined for each batch by titration: the minimum concentration that reaches the maximum proliferation stimulation is optimal. A synchronization of the cells before the experiment is not necessary, but can be done. After 3 days, the cell count is determined with the MTS kit (Promega) according to manufacturer's information. It is recommended to measure the absorption at several points to obtain a maximum absorption in the linear range (0.5; 1; 2; 4 hours).
# Negative control, no mitogen (no proliferation) (−bFGF/VEGF) Positive control, with mitogen (maximum stimulation) (+bFGF/VEGF)
# [3] = tested on: HUVEC (Human Umbilical Vein Endothelial Cells)-spheroids; test: splintering test (tube formation test) of endothelial cell spheroids in collagen; format: cell-based; conditions: for induction of capillary-like structures (tube formation); penetration of endothelial cells in collagen gels: over basal bFGF-induced penetration
# Procedure: For the splintering test (tube formation test), the following experimental method was used:
# Medium: MCDB 131, glutamine, Pen/Strep, amphotericin (0.25 μg/ml), heparin (20 μg/ml), heat-inactivated FCS (10%)
# Growth medium: Medium with 2 ng/ml of bFGF and 10 ng/ml of VEGF
# Endothelial cells are dissolved with trypsin/EDTA and diluted with 5000 cells/ml in medium with 0.24% methyl cellulose. 200 μl (1000 cells) each are added to bowls of a Greiner plate and incubated overnight. Round cell clusters (spheroids) are harvested with a 1 ml pipette with beveled tips and centrifuged off. Spheroids are resuspended in 1.2% methyl cellulose/FCS and mixed with neutralized collagen gel. EDb and bFGF were co-polymerized.
# This peptide thus has a stimulating effect on the penetration of endothelial cells in collagen gels. This peptide therefore corresponds to the binding region of EDb and stimulates, analogously to EDb itself, the penetration of endothelial cells in the collagen.
# The method described for FIG. 3 was followed.
# [4] = target: T1, biontinylated protein with an apparent molecular weight of 120-130 kDa (receptor of the EDb-fibronectin domains) (Homo sapiens, UniProt P05556); test: affinity chromatography of cell lysate from surface-labeled human skin endothelial cells; format: binding; conditions: proliferating endothelial cells; EDTA elution; SDS-PAGE, Western Blot
# T1 construct: proliferating endothelial cells that are biotinylated on the cell surface were lysed with a detergent; endogenous in cells; host or cells: proliferating human skin endothelial cells, surface-biotinylated, lysed in CHAPS
# Procedure: In this respect, proliferating endothelial cells that are biotinylated on the cell surface were lysed with a detergent and subjected to an affinity chromatography, in which short fragments of fibronectin were coupled to sepharose with or without the inserted EDb-fibronectin domains (with the EDb-fibronectin domains=Fn-7-B-8-9, without the EDb-fibronectin domains=Fn-7-8-9). […] The elution is carried out by means of EDTA. Several fractions, described below, were collected. The fractions were then subjected to SDS-PAGE and studied with Western Blot with streptavidin-peroxidase and chemiluminescence (ECL). Traces 1 and 5 show pre-elution fractions, while traces 2, 3, 4 or 6, 7, 8 show the eluted fractions 1, 2 and 3. Traces 1-4 show the chromatography with Fn-7-8-9, while traces 5-8 show the chromatography with Fn-7-B-8-9.
# Method: The cell culture bottles are washed respectively 3 times with PBS w/Ca+Mg before and after the biotinylation. Before the last washing process, the biotin buffer (1 mg/15 ml of PBS) is prepared. Into each of the bottles, 5 ml of the buffer (for 225 cm^2) or 12.5 ml (500 cm^2 plates) is pipetted into the center of the bottom, so that the volume can disperse over the entire bottom of the bottle while swinging around. The first culture bottle is then treated with half of the lysis buffer volume. […]
# [5] = tested on: band with an apparent molecular weight of 120-130 kDa (receptor of the EDb-fibronectin domains); test: affinity chromatography of cell lysate from surface-labeled human skin stromal cells; format: binding; conditions: Western Blot
# Procedure: Method: The lysate is first put on the column three times.
# EDTA-Elution: EDTA complexes the Ca and Mg ions. As a result, the endothelial-cell proteins are eluted, which require Ca and Mg for binding. 2×4 ml of EDTA-buffer is put on the column (or on both columns) and collected in two fractions (E1 and E2/BE1 and BE2) in Falcon tubes. Then, the tube contents are mixed, and […] is pipetted off into one (or two) Eppendorf vessel(s).
# The fractions or pre-elution fractions that are thus obtained were separated with SDS-PAGE and subjected to a Western Blot under reducing conditions.
# In the Western Blot shown in FIG. 11, traces 1-3 show the elution of an affinity column with Fn-7-8-9, while traces 4-6 show the elution of an affinity column of Fn-7-B-8-9. Traces 1 and 4 are pre-elution factors, while traces 2, 3 or 5, 6 show fractions 1 and 2 of the respective elution run.
# T1 sequence (P05556 21-798): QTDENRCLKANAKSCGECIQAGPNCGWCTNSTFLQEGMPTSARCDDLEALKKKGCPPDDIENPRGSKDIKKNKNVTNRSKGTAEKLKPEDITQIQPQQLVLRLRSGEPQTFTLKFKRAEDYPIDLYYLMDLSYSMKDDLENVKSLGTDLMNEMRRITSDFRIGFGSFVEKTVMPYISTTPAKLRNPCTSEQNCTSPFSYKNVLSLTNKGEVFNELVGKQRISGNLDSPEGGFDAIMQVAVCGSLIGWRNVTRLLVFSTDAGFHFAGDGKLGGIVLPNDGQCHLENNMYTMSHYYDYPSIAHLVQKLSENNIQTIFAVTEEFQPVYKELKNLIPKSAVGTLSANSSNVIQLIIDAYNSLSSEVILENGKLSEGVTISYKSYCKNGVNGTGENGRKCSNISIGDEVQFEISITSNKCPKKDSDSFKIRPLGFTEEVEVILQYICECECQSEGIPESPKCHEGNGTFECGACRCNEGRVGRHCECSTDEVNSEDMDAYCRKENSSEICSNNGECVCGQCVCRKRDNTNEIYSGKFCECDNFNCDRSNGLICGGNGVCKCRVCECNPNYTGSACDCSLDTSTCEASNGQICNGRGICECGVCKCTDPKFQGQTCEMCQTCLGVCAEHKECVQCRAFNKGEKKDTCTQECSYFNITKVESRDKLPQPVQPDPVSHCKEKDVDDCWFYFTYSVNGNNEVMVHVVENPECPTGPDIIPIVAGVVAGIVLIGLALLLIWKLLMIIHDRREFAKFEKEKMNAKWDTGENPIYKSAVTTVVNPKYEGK
# T1 sequence (P17301 30-1181 partner): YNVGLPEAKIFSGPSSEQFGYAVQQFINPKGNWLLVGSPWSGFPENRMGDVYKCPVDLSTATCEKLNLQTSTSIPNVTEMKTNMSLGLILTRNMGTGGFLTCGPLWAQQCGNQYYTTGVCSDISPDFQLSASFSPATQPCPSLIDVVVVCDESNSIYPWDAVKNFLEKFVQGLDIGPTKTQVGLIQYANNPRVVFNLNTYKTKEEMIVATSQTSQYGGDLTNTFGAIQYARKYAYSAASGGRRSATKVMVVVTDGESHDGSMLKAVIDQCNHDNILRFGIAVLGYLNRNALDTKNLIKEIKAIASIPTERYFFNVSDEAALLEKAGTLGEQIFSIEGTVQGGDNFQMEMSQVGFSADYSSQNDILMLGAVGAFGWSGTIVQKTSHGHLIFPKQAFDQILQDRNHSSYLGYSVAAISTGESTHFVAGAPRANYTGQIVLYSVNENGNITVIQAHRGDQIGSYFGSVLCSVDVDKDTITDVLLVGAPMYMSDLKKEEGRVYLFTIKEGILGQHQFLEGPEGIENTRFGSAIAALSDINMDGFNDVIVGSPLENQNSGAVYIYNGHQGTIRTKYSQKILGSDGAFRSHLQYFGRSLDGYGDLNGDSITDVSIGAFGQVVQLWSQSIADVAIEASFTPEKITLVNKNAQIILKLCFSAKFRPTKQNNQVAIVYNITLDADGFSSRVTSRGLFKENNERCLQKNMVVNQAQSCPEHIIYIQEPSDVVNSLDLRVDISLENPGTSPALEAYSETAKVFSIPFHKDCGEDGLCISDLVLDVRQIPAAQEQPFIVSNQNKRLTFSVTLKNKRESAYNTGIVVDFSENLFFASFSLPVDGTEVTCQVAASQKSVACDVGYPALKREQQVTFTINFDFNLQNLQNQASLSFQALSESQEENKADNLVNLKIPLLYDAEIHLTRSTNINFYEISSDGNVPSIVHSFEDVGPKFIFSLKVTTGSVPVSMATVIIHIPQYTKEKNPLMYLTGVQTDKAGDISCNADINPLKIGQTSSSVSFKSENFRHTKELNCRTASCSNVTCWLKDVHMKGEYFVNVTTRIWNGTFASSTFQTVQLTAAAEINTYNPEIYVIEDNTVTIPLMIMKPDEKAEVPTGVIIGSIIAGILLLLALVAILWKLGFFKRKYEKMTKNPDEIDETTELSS
substance,measurement,setting,value
"1: synthetic peptide, partial sequence of the EDb-fibronectin domains, SEQ ID NO: 1 (VDITDSSIGLRWTPL) [compound 1]",inhibition of adherence of endothelial cells to ED-B-coated plates,endothelial cells [1],inhibitory
"3: synthetic peptide, partial sequence of the EDb-fibronectin domains, SEQ ID NO: 3 (TGLEPGIDYDISVIT) [compound 3]",inhibition of adherence of endothelial cells to ED-B-coated plates,endothelial cells [1],inhibitory
"ED-B: recombinant His-tagged EDb-fibronectin domain (type III repeat), expressed in E. coli",proliferation of human stromal cells,stromal cells (SC),could not be increased
same,adhesion of endothelial cells to coated surfaces,endothelial cells [2],cells adhere
same,action on human endothelial cell proliferation,endothelial cells (EC); EC/collagen,not as significant as in the flattening-out on gelatin
same,action on human endothelial cell proliferation,endothelial cells (EC); EC/gelatin,action of ED-B on human endothelial cell proliferation could be determined
same,action on proliferation of cells (extinction at 490 nm),"endothelial cells (EC); absence of bFGF, MTS assay",no action
same,splintering of endothelial cells from spheroids,"[3]; embedded in collagen, 10 μg/ml bFGF, 6 μg/ml ED-B",further stimulated; also recorded: significant increase in splintering
same,induction of capillary-like structures (tube formation); penetration of endothelial cells in collagen gels,[3],stimulates
"Fn-7-B-8-9: recombinant fibronectin fragment with domains 7, EDb, 8 and 9",binding of 120-130 kDa surface protein to sepharose-coupled fragment,[4],binds specifically
same,prominent 120-130 kDa band in eluate of affinity column,[5],cannot be determined
"peptide No. 2: synthetic peptide derived from loop 5 of ED-B, SEQ ID NO: 2 (GYYTVTGLEPGIDYD)",inhibition of adherence of endothelial cells to ED-B-coated plates,endothelial cells [1],inhibitory
same,induction of capillary-like structures (tube formation); penetration of endothelial cells in collagen gels,[3],maximum effect
